A short description of series [1]: In vitro drug release from drug-vinylpolysiloxane pills/articles in simulated gastric fluid. The class given is physicochemical. The conditions noted are these: for in vitro release from drug-VPS pill: SGF, 37° C., up to 28 days.
Description: Articles with a series of 30 pills were made so that there was 1 gram of doxycycline hyclate in 2 grams of vinylpolysiloxane. Pills were coated with either cellulose acetate butyrate (CAB) or with Eudragit RS PO. A control with no coatings was also made. The articles were immersed in simulated gastric fluid, and the cumulative release of doxycycline hyclate was measured for more than 26 days. […] Thickness of coatings was tuned by increasing the spray volume. […] Individual pills made of drug-VPS for doxycycline hyclate, isoniazid, ethambutol, pyrazinamide, moxifloxacin were used to evaluate long-term release kinetics in SGF. […] Drug concentrations were then analyzed using a High-Performance Liquid Chromatography (HPLC). […] An Agilent 1260 Infinity II HPLC system (Agilent Technologies, Inc.) equipped with a Model 1260 quaternary pump, Model 1260 High Performance autosampler, Model 1260 thermostat, Model 1260 Infinity Thermostatted Column Compartment control module, and Model 1260 diode array detector was utilized. Data processing and analysis was performed using OpenLab CDS ChemStation (Agilent Technologies, Inc.). All solvents used were purchased from Sigma-Aldrich Corporation. For doxycycline hyclate, chromatographic isocratic separation was carried out on an Agilent 4.6×50 mm AdvanceBio RP-mAb SB-C8 analytical column with 3.5 μm particles, maintained at 55° C. The optimized mobile phase consisted of 20 mM dipotassium phosphate buffer and acetonitrile (pH 6 adjusted with triethylamine) [60:40 (v/v)] at a flow rate of 0.85 mL/min over a 4 min run time. The injection volume was 5 μl, and the selected ultraviolet (UV) detection wavelength was 293 nm.
A short description of series [2]: In vitro drug release from drug-VPS pills/devices in water. It counts as physicochemical. The conditions noted are these: 37° C.
Description: Three intact rifampicin devices were fabricated by loading 2 grams of drug into VPS pills. The devices were incubated in 500 mL of nanopure water for up to 26 days in a shaking incubator at 37° C. and 200 rpm, with media exchange at specified time intervals. […] The drug concentrations samples were then measured on an Infinite M200Pro (Tecan) reader (absorbance, 475 nm).
The conditions of series [3]: pig, in vivo.

In the case of `CC[C@@H](CO)NCCN[C@@H](CC)CO` [ethambutol], the “in vitro release from drug-VPS pill” value in series [1] is recorded as “able to release”.

Regarding `NNC(=O)c1ccncc1` [isoniazid], the “in vitro release from drug-VPS pill/device” value in series [2] is listed as “able to release”.

Take `NC(=O)c1cnccn1` [pyrazinamide]: the “in vitro release from drug-VPS pill” value in series [1] was “able to release”.

With `CO[C@H]1/C=C/O[C@@]2(C)Oc3c(C)c(O)c4c(O)c(c(/C=N/N5CCN(C)CC5)c(O)c4c3C2=O)NC(=O)/C(C)=C\C=C\[C@H](C)[C@H](O)[C@@H](C)[C@@H](O)[C@@H](C)[C@H](OC(C)=O)[C@@H]1C` [rifampicin], in series [3], the “duration of detectable serum concentrations” value is given as “detectable serum concentrations for a week”.

doxycycline hyclate: in series [3], the absorption result is “absorbed rapidly”. Further, the “duration of detectable drug in serum” value in series [3] is reported as “at least 28 days”. Also, the “duration of sustained drug release (non-zero concentrations in the blood)” value in series [3] was “at least 7 days”. The burst release result in series [1] (PEG 3350 in matrix, pills coated with Eudragit RS PO or Eudragit NM 30D) was “prevented the burst release in the first day”; in series [1] (article of 30 pills coated with Eudragit RS PO, simulated gastric fluid, vs uncoated control), “prevented the burst release in the first couple days”; in series [1] (article of 30 pills coated with cellulose acetate butyrate (CAB), simulated gastric fluid, vs uncoated control), “prevented the burst release in the first couple days”. Besides, in series [1] (PEG 3350 in matrix, thicker coating of Eudragit NM 30D), the rate of release entry was “slower rate of release”. For the same molecule, the release kinetic profile result in series [1] (VPS pills coated with Eudragit RS 100, SGF) was “linear kinetic profile with limited burst release”. Moreover, in series [1] (articles of 30 pills, 1 gram drug in 2 grams vinylpolysiloxane, CAB-coated, Eudragit RS PO-coated or uncoated, simulated gastric fluid), the “duration of drug release (cumulative release)” value is “more than 26 days”. Further, the “burst release and release rate” value is “reducing the burst release and release rate” in series [1] (multi-matrix pill (concentric layers of different drug/matrix concentration)); “blunted the burst release and slowed down the release rate” in series [1] (pills coated with PDMS of different viscosities (750 cst and 25 cst)). For the same molecule, in series [1] (polyethylene glycol (PEG) 3350 added to drug/siloxane matrix), the “effect of excipient on rate of release” value is on record as “increase the rate of release”.

(Values after US12383495B2, “Resident articles for gram-level dosing” (Massachusetts Institute of Technology, priority 2018, dated 2025).)
